According to PMC12638379, “An innovative approach to development of new pyrazolylquinolin-2-one hybrids as dual EGFR and BRAF^V600E inhibitors” (Molecular Diversity, 2025):
Like-named read-outs stand apart in the source and are kept apart here.

Test system: NCI 60 cancer cell lines
Assay: NCI anticancer screening over a panel of 60 cancer cells, single concentration 10 µM
Assay type: cell-based, human
Settings: Homo sapiens, read-out: % Growth Inhibition (GI %)
Experimental: Ten final compounds 4a–j and five intermediates 2a–e have been selected by the National Cancer Institute (NCI) for anticancer screening over a panel of 60 cancer cells that cover a variety of histological tissues, including the central nervous system, leukemia, lung, colon, kidney, ovary, breast, and prostate, using the protocol established by the National Cancer Institute (NCI). In a primary screening, each compound was screened at a concentration of 10 µM.
Compounds 2a-e and 4a-j were selected by the National Cancer Institute (NCI) according to the protocol of the Compound Evaluation Branch of the National Cancer Institute, Bethesda, USA, for in vitro anticancer screening which refers in turn to apoptotic activity. The methodology of the NCI anticancer screening has been described in detail elsewhere (http://www.dtp.nci.nih.gov).

**Q.** How did the inhibition at 10 µM (786-0, Renal cancer 786-0, 10 μM) turn out when `COc1ccc2[nH]c(=O)cc(-n3ncc(/C(C)=N/Nc4ccc(C(=O)O)cc4)c3C)c2c1` [Compound 4h, (E)-4-(2-(1-(1-(6-methoxy-2-oxo-1,2-dihydroquinolin-4-yl)-5-methyl-1H-pyrazol-4-yl)ethylidene)hydrazineyl)benzoic acid] was run?
**A.** < 5%

**Q.** And the inhibition at 10 µM (A498, Renal cancer A498, 10 μM)?
**A.** < 5%

**Q.** What about the inhibition at 10 µM (A549, Non-small cell lung cancer A549/ATCC, 10 μM) of the same compound?
**A.** < 5%

**Q.** And the inhibition at 10 µM (ACHN, Renal cancer ACHN, 10 μM)?
**A.** < 5%

**Q.** And the inhibition at 10 µM (BT-549, Breast cancer BT-549, 10 μM)?
**A.** < 5%

**Q.** What about the inhibition at 10 µM (CAKI-1, Renal cancer CAKI-1, 10 μM) of the same compound?
**A.** < 5%

**Q.** And the inhibition at 10 µM (CCRF-CEM, Leukemia CCRF-CEM, 10 μM)?
**A.** < 5%

**Q.** And the inhibition at 10 µM (COLO 205, Colon cancer COLO 205, 10 μM)?
**A.** < 5%

**Q.** And the inhibition at 10 µM (DU-145, Prostate cancer DU-145, 10 μM)?
**A.** < 5%

**Q.** And the inhibition at 10 µM (EKVX, Non-small cell lung cancer EKVX, 10 μM)?
**A.** < 5%

**Q.** And the inhibition at 10 µM (HCC 2998, Colon cancer HCC-2998, 10 μM)?
**A.** < 5%

**Q.** And the inhibition at 10 µM (HCT-15, Colon cancer HCT-15, 10 μM)?
**A.** < 5%

**Q.** What about the inhibition at 10 µM (HCT-116, Colon cancer HCT-116, 10 μM) of the same compound?
**A.** < 5%

**Q.** And the inhibition at 10 µM (HL-60, Leukemia HL-60(TB), 10 μM)?
**A.** < 5%

**Q.** What about the inhibition at 10 µM (HOP-62, Non-small cell lung cancer HOP-62, 10 μM) of the same compound?
**A.** < 5%

**Q.** And the inhibition at 10 µM (HOP-92, Non-small cell lung cancer HOP-92, 10 μM)?
**A.** 38.5%

**Q.** And the inhibition at 10 µM (HT-29, Colon cancer HT29, 10 μM)?
**A.** < 5%

**Q.** And the inhibition at 10 µM (Hs-578T, Breast cancer HS 578T, 10 μM)?
**A.** < 5%

**Q.** What about the inhibition at 10 µM (IGROV-1, Ovarian cancer IGROV1, 10 μM) of the same compound?
**A.** < 5%

**Q.** And the inhibition at 10 µM (K562, Leukemia K-562, 10 μM)?
**A.** < 5%

**Q.** What about the inhibition at 10 µM (KM12, Colon cancer KM12, 10 μM) of the same compound?
**A.** < 5%

**Q.** What about the inhibition at 10 µM (LOX IMVI, Melanoma LOX IMVI, 10 μM) of the same compound?
**A.** < 5%

**Q.** And the inhibition at 10 µM (Leukemia SR, 10 μM)?
**A.** < 5%

**Q.** And the inhibition at 10 µM (MCF7, Breast cancer MCF7, 10 μM)?
**A.** 5.52%

**Q.** And the inhibition at 10 µM (MDA-MB-231, Breast cancer MDA-MB-231/ATCC, 10 μM)?
**A.** 4.98%

**Q.** What about the inhibition at 10 µM (MDA-MB-435, Melanoma MDA-MB-435, 10 μM) of the same compound?
**A.** < 5%

**Q.** What about the inhibition at 10 µM (MDA-MB-468, Breast cancer MDA-MB-468, 10 μM) of the same compound?
**A.** < 5%

**Q.** And the inhibition at 10 µM (MOLT-4, Leukemia MOLT-4, 10 μM)?
**A.** < 5%

**Q.** And the inhibition at 10 µM (Melanoma M14, 10 μM)?
**A.** < 5%

**Q.** And the inhibition at 10 µM (Melanoma MALM-3M, 10 μM)?
**A.** < 5%

**Q.** And the inhibition at 10 µM (NCI-H23, Non-small cell lung cancer NCI-H23, 10 μM)?
**A.** < 5%

**Q.** What about the inhibition at 10 µM (NCI-H226, Non-small cell lung cancer NCI-H226, 10 μM) of the same compound?
**A.** < 5%

**Q.** What about the inhibition at 10 µM (NCI-H322M, Non-small cell lung cancer NCI-H322M, 10 μM) of the same compound?
**A.** < 5%

**Q.** What about the inhibition at 10 µM (NCI-H460, Non-small cell lung cancer NCI-H460, 10 μM) of the same compound?
**A.** < 5%

**Q.** And the inhibition at 10 µM (NCI-H522, Non-small cell lung cancer NCI-H522, 10 μM)?
**A.** < 5%

**Q.** What about the inhibition at 10 µM (NCI/ADR-RES, Ovarian cancer NCI/ADR-RES, 10 μM) of the same compound?
**A.** < 5%

**Q.** And the inhibition at 10 µM (OVCAR-3, Ovarian cancer OVCAR-3, 10 μM)?
**A.** < 5%

**Q.** And the inhibition at 10 µM (OVCAR-4, Ovarian cancer OVCAR-4, 10 μM)?
**A.** < 5%

**Q.** What about the inhibition at 10 µM (OVCAR-5, Ovarian cancer OVCAR-5, 10 μM) of the same compound?
**A.** < 5%

**Q.** What about the inhibition at 10 µM (OVCAR-8, Ovarian cancer OVCAR-8, 10 μM) of the same compound?
**A.** < 5%

**Q.** What about the inhibition at 10 µM (Prostate cancer PC-3, 10 μM) of the same compound?
**A.** < 5%

**Q.** And the inhibition at 10 µM (RPMI-8226, Leukemia RPMI-8226, 10 μM)?
**A.** < 5%

**Q.** And the inhibition at 10 µM (RXF 393, Renal cancer RXF 393, 10 μM)?
**A.** < 5%

**Q.** And the inhibition at 10 µM (SF-268, CNS Cancer SF-268, 10 μM)?
**A.** < 5%

**Q.** What about the inhibition at 10 µM (SF-295, CNS Cancer SF-295, 10 μM) of the same compound?
**A.** < 5%

**Q.** And the inhibition at 10 µM (SF-539, CNS Cancer SF-539, 10 μM)?
**A.** < 5%

**Q.** And the inhibition at 10 µM (SK-MEL-2, Melanoma SK-MEL-2, 10 μM)?
**A.** < 5%

**Q.** And the inhibition at 10 µM (SK-MEL-5, Melanoma SK-MEL-5, 10 μM)?
**A.** < 5%

**Q.** And the inhibition at 10 µM (SK-MEL-28, Melanoma SK-MEL-28, 10 μM)?
**A.** < 5%

**Q.** What about the inhibition at 10 µM (SK-OV-3, Ovarian cancer SK-OV-3, 10 μM) of the same compound?
**A.** < 5%

**Q.** What about the inhibition at 10 µM (SN12C, Renal cancer SN12C, 10 μM) of the same compound?
**A.** < 5%

**Q.** What about the inhibition at 10 µM (SNB-19, CNS Cancer SNB-19, 10 μM) of the same compound?
**A.** < 5%

**Q.** And the inhibition at 10 µM (SNB-75, CNS Cancer SNB-75, 10 μM)?
**A.** < 5%

**Q.** What about the inhibition at 10 µM (SW-620, Colon cancer SW-620, 10 μM) of the same compound?
**A.** < 5%

**Q.** And the inhibition at 10 µM (T47D, Breast cancer T-47D, 10 μM)?
**A.** < 5%

**Q.** And the inhibition at 10 µM (TK-10, Renal cancer TK-10, 10 μM)?
**A.** < 5%

**Q.** And the inhibition at 10 µM (U-251, CNS Cancer U251, 10 μM)?
**A.** < 5%

**Q.** What about the inhibition at 10 µM (UACC-62, Melanoma UACC-62, 10 μM) of the same compound?
**A.** < 5%

**Q.** What about the inhibition at 10 µM (UACC-257, Melanoma UACC-257, 10 μM) of the same compound?
**A.** < 5%

**Q.** What about the inhibition at 10 µM (UO-31, Renal cancer UO-31, 10 μM) of the same compound?
**A.** 22.6%
